This note sets out measurements from patent US6538032B1, “Phytosphingosine derivatives with antitumor activity” (Charmzone Co., Ltd., priority 2001, dated 2003).

In this assay the test system is Lewis lung carcinoma (LLC) cells. The assay is described as follows: inhibition of in vivo growth of Lewis lung carcinoma. More on the design: species or system BDF1 mice. The conditions noted are these: 2000 μg, intraperitoneal, 20 doses; day 21. Here is the method:
The inhibition of cancer cell growth in vivo system was examined in BDF1 mice using Lewis lung carcinoma (LLC) cells. The concentration of LLC cells used was such that each mouse was injected with one million carcinoma cells via subcutaneous injection to induce a cancer. One hundred microliter of TMP liposome (TMP 100 μg) was injected intraperitoneally and intravenously, respectively, 1 day, 3 days, 6 days and 9 days after the injection of the above LLC cells. As a positive control, AG3340 (Agouron Pharmaceuticals Co., Ltd., USA), known as an MMP-2 (matrix metaloproteinasse-2) inhibitor, was suspended in 0.2% tween/0.5% carboxymethyl cellulose and 2 mg of the resulting suspension was intraperitoneally injected daily. […]
TMP.I liposomes (DPPC/Chol/TMP.I=5:5:1 mole ratio) having an anti-metastatic activity, was administered to BDF1 inoculated with Lewis Lung Carcinoma (LLC) cells and their inhibitory effect on the tumor growth was observed. […] The same administration was repeated after 3 days, 6 days and 9 days of the subcutaneous injection of the LLC cancer cells and 21 days after the injection each mouse was killed by dislocation of the cervical vertebra, and the volume of cancer was measured by the following equation and the results are shown in the following table 5. […]

As to `CC1(C)SCCN(S(=O)(=O)c2ccc(Oc3ccncc3)cc2)[C@H]1C(=O)NO` [AG3340], the “Volume of Cancer” value was determined as 1100 ± 250 mm^3.
